According to US12012392B2, “Sulfonamide carboxamide compounds” (Inflazome Limited, priority 2017, dated 2024):
pIC50: −log10 of the molar value. Structures can show the parent of a compound that is named as a salt.

Assays:
NLRP3 [1] = molecular target: T1, NLRP3 (Homo sapiens, UniProt Q96P20); assay: Human whole blood IL1β release assay; format: cell-based; parameters: Plate out 80 μl of whole blood containing 1 μg/ml of LPS; from tissue; host or cells: human whole blood from healthy donors, LPS-primed, nigericin-stimulated; settings: LPS 1 μg/ml, nigericin 10 μM, IL-1β AlphaLisa, read-out: HWB IC50
Experimental: For systemic delivery, the ability to inhibit NLRP3 when the compounds are present within the bloodstream is of great importance. For this reason, the NLRP3 inhibitory activity of a number of compounds in human whole blood was investigated in accordance with the following protocol.
Human whole blood in Li-heparin tubes was obtained from healthy donors from a volunteer donor panel. • 1. Plate out 80 μl of whole blood containing 1 μg/ml of LPS in 96-well, clear bottom cell culture plate (Corning #3585) • 2. Add […] compound (8 points half-log dilution with 10 μM top dose) or vehicle (DMSO 0.1% FAC) to the appropriate wells • 3. Incubate for 3 hrs at 37° C., 5% CO2 • 4. Add 10 μl Nigericin (Sigma #N7143) (10 μM FAC) to all wells • 5. Incubate for 1 hr at 37° C., 5 CO2 • 6. At the end of the incubation period, spin plates at 300×g for 5 mins to pellet cells and remove 20 μl of supernatant and add to 96-well v-bottom plates for […] analysis (note: these plates containing the supernatants can be stored at −80° C. to be analysed at a later date) • 7. IL-1β was measured according to the manufacturer protocol (Perkin Elmer-AlphaLisa IL-1 Kit AL220F-5000) • 8. IC50 data is fitted to anon-linear regression equation (log inhibitor vs response-variable slope 4-parameters)

NLRP3 [2] = molecular target: T1, NLRP3; assay: THP-1 cells pyroptosis assay; format: cell-based; parameters: Seed THP-1 cells (25,000 cells/well) containing 1.0 μg/ml LPS; host or cells: THP-1 cells, LPS-primed, nigericin-stimulated; settings: LPS 1 μg/ml, nigericin 5 μM, resazurin read-out
Experimental: THP-1 cells (ATCC #TIB-202) were grown in RPMI containing L-glutamine (Gibco #11835) supplemented with 1 mM sodium pyruvate (Sigma #S8636) and penicillin (100 units/ml)/streptomycin (0.1 mg/ml) (Sigma #P4333) in 10% Fetal Bovine Serum (FBS) (Sigma #F0804). The cells were routinely passaged and grown to confluency (˜10^6 cells/ml). On the day of the experiment, THP-1 cells were harvested and resuspended into RPMI medium (without FBS). The cells were then counted and viability (>90%) checked by Trypan blue (Sigma #T8154). Appropriate dilutions were made to give a concentration of 625,000 cells/ml. To this diluted cell solution was added LPS (Sigma #L4524) to give a 1 μg/ml Final Assay Concentration (FAC). 40 μl of the final preparation was aliquoted into each well of a 96-well plate. The plate thus prepared was used for compound screening.
The following method step-by-step assay was followed for compound screening. • 1. Seed THP-1 cells (25,000 cells/well) containing 1.0 μg/ml LPS in 40 μl of RPMI medium (without FBS) in 96-well, black walled, clear bottom cell culture plates coated with poly-D-lysine (VWR #734-0317) • 2. Add 5 μl compound (8 points half-log dilution, with 10 μM top dose) or vehicle (DMSO 0.1% FAC) to the appropriate wells • 3. Incubate for 3 hrs at 37° C. and 5% CO2 • 4. Add 5 μl nigericin (Sigma #N7143) (FAC 5 μM) to all wells • 5. Incubate for 1 hr at 37° C. and 5% CO2 • 6. At the end of the incubation period, spin plates at 300×g for 3 mins and remove supernatant • 7. Then add 50 μl of resazurin (Sigma #R7017) (FAC 100 μM resazurin in RPMI medium without FBS) and incubate plates for a further 1-2 hrs at 37° C. and 5% CO2 • 8. Plates were read in an Envision reader at Ex 560 nm and Em 590 nm • 9. IC50 data is fitted to a non-linear regression equation (log inhibitor vs response-variable slope 4-parameters) 96-Well Plate Map

T1 sequence (Q96P20 whole entry): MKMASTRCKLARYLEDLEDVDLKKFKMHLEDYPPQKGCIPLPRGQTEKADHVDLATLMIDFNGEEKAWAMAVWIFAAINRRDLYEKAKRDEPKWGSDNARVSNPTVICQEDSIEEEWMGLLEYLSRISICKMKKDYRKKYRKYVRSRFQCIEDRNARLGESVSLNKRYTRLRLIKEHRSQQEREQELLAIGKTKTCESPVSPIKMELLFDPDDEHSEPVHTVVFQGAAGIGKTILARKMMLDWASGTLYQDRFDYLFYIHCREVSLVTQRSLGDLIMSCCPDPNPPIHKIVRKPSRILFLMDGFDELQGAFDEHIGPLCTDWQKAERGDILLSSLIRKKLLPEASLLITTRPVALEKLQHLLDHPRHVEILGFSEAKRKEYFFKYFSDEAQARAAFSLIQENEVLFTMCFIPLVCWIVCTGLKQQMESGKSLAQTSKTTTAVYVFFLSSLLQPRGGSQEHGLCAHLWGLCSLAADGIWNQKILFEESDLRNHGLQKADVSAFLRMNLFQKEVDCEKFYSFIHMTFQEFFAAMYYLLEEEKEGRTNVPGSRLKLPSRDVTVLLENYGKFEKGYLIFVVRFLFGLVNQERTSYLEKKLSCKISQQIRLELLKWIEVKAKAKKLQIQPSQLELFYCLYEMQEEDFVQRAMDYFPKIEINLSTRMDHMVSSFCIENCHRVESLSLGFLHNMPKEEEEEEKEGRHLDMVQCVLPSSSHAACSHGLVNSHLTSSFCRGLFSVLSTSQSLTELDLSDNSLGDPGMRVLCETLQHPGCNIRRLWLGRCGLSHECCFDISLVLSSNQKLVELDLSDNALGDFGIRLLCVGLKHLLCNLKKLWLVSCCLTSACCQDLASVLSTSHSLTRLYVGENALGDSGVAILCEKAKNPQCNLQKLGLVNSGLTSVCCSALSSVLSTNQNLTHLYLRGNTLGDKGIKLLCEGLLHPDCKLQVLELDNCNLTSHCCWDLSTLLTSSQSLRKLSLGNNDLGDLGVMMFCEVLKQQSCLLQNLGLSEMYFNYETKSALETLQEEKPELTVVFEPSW

Structure (SMILES) | pIC50 (NLRP3 [1]) | pIC50 (NLRP3 [2])
O=C(Nc1c2c(cc3c1CCC3)CCC2)NS(=O)(=O)c1ccn(C2CCCC2O)n1 (racemic) [Example 22, N-((1,2,3,5,6,7-Hexahydro-s-indacen-4-yl)carbamoyl)-1-(2-hydroxycyclopentyl)-1H-pyrazole-1-sulfonamide] | 6.10 to 6.40 | 6.80 to 7.40
O=C(Nc1c2c(cc3c1CCC3)CCC2)NS(=O)(=O)c1ccn(CC2CCCO2)n1 (single isomer, unassigned) [Example 4] | 5.00 to 5.49 | 6.80 to 7.40
O=C(Nc1c2c(cc3c1CCC3)CCC2)NS(=O)(=O)c1ccn(CC2CCCO2)n1 (single isomer, unassigned) [Example 5] | 5.80 to 6.10 | 6.80 to 7.40
O=C(Nc1c2c(cc3c1CCC3)CCC2)NS(=O)(=O)c1ccn(CC2CCOC2)n1 (stereo not drawn) [Example 6, N-((1,2,3,5,6,7-Hexahydro-s-indacen-4-yl)carbamoyl)-1-((tetrahydrofuran-3-yl)methyl)-1H-pyrazole-3-sulfonamide] | 5.80 to 6.10 | 6.80 to 7.40
O=C(Nc1c2c(cc3c1CCC3)CCC2)NS(=O)(=O)c1ccn(CCCO)n1 [Example 7, N-((1,2,3,5,6,7-Hexahydro-s-indacen-4-yl)carbamoyl)-1-(3-hydroxypropyl)-1H-pyrazole-3-sulfonamide] | 6.10 to 6.40 | 6.80 to 7.40
O=C(Nc1c2c(cc3c1CCC3)CCC2)NS(=O)(=O)c1ccn(CCO)n1 [Example 8, N-((1,2,3,5,6,7-Hexahydro-s-indacen-4-yl)carbamoyl)-1-(2-hydroxyethyl)-1H-pyrazole-3-sulfonamide] | > 6.40 | 6.80 to 7.40
CC1(Cn2ccc(S(=O)(=O)NC(=O)Nc3c4c(cc5c3CCC5)CCC4)n2)COC1 [Example 9, N-((1,2,3,5,6,7-Hexahydro-s-indacen-4-yl)carbamoyl)-1-((3-methyloxetan-3-yl)methyl)-1H-pyrazole-3-sulfonamide, partial ammonium salt] | 5.00 to 5.49 | 5.59 to 6.19
O=C(Nc1c2c(cc3c1CCC3)CCC2)NS(=O)(=O)c1ccn(C2COC2)n1 [Example 12, N-((1,2,3,5,6,7-Hexahydro-s-indacen-4-yl)carbamoyl)-1-(oxetan-3-yl)-1H-pyrazole-3-sulfonamide] | 5.80 to 6.10 | 6.19 to 6.80
COC(C)(C)Cn1ccc(S(=O)(=O)NC(=O)Nc2c3c(cc4c2CCC4)CCC3)n1 [Example 14, N-((1,2,3,5,6,7-Hexahydro-s-indacen-4-yl)carbamoyl)-1-(2-methoxy-2-methylpropyl)-1H-pyrazole-3-sulfonamide] | 6.10 to 6.40 | > 7.40
C[C@@H](CO)n1ccc(S(=O)(=O)NC(=O)Nc2c3c(cc4c2CCC4)CCC3)n1 [Example 15, (S)—N-((1,2,3,5,6,7-Hexahydro-s-indacen-4-yl)carbamoyl)-1-(1-hydroxypropan-2-yl)-1H-pyrazole-3-sulfonamide] | 5.80 to 6.10 | 6.80 to 7.40
COC(C)(C)Cn1ccc(S(=O)(=O)NC(=O)Nc2c(C(C)C)cc(F)cc2C(C)C)n1 [Example 17, N-((4-Fluoro-2,6-diisopropylphenyl)carbamoyl)-1-(2-methoxy-2-methylpropyl)-1H-pyrazole-3-sulfonamide] | 5.00 to 5.49 | 5.59 to 6.19
CC(C)c1cc(F)cc(C(C)C)c1NC(=O)NS(=O)(=O)c1ccn(CC(C)(C)O)n1 [Example 18, N-((4-Fluoro-2,6-diisopropylphenyl)carbamoyl)-1-(2-hydroxy-2-methylpropyl)-1H-pyrazole-3-sulfonamide] | 5.49 to 5.80 | 5.59 to 6.19
CC(C)c1cc(Cl)cc(C(C)C)c1NC(=O)NS(=O)(=O)c1ccn(CC(C)(C)O)n1 [Example 19, N-((4-Chloro-2,6-diisopropylphenyl)carbamoyl)-1-(2-hydroxy-2-methylpropyl)-1H-pyrazole-3-sulfonamide] | 5.00 to 5.49 | 5.59 to 6.19
CC(C)(CO)n1ccc(S(=O)(=O)NC(=O)Nc2c3c(cc4c2CCC4)CCC3)n1 [Example 20, N-((1,2,3,5,6,7-Hexahydro-s-indacen-4-yl)carbamoyl)-1-(1-hydroxy-2-methylpropan-2-yl)-1H-pyrazole-3-sulfonamide] | 5.80 to 6.10 | 6.80 to 7.40
CC[C@H](O)Cn1ccc(S(=O)(=O)NC(=O)Nc2c3c(cc4c2CCC4)CCC3)n1 [Example 21, (S)—N-((1,2,3,5,6,7-Hexahydro-s-indacen-4-yl)carbamoyl)-1-(2-hydroxybutyl)-1H-pyrazole-3-sulfonamide] | 5.80 to 6.10 | 6.80 to 7.40
CC[C@@H](O)Cn1ccc(S(=O)(=O)NC(=O)Nc2c3c(cc4c2CCC4)CCC3)n1 [Example 25, (R)—N-((1,2,3,5,6,7-Hexahydro-s-indacen-4-yl)carbamoyl)-1-(2-hydroxybutyl)-1H-pyrazole-3-sulfonamide] | 5.80 to 6.10 | 6.19 to 6.80
O=C(Nc1c2c(cc3c1CCC3)CCC2)NS(=O)(=O)c1ccn(CC(O)C(F)(F)F)n1 (stereo not drawn) [Example 30, N-((1,2,3,5,6,7-Hexahydro-s-indacen-4-yl)carbamoyl)-1-(3,3,3-trifluoro-2-hydroxypropyl)-1H-pyrazole-3-sulfonamide] | 5.80 to 6.10 | 6.80 to 7.40
O=C(Nc1c2c(cc3c1CCC3)CCC2)NS(=O)(=O)c1ccn(C2CCOCC2)n1 [Example 31, N-((1,2,3,5,6,7-Hexahydro-s-indacen-4-yl)carbamoyl)-1-(tetrahydro-2H-pyran-4-yl)-1H-pyrazole-3-sulfonamide] | 5.49 to 5.80 | 6.19 to 6.80
CC(C)c1cc(Cl)cc(C(C)C)c1NC(=O)NS(=O)(=O)c1ccn(C2CCOCC2)n1 [Example 32, N-((4-Chloro-2,6-diisopropylphenyl)carbamoyl)-1-(tetrahydro-2H-pyran-4-yl)-1H-pyrazole-3-sulfonamide] | 5.00 to 5.49 | 5.59 to 6.19
C[C@@H](O)Cn1ncc(S(=O)(=O)NC(=O)Nc2c3c(cc4c2CCC4)CCC3)n1 [Example 33, (R)—N-((1,2,3,5,6,7-Hexahydro-s-indacen-4-yl)carbamoyl)-2-(2-hydroxypropyl)-2H-1,2,3-triazole-4-sulfonamide] | 5.80 to 6.10 | 6.19 to 6.80
O=C(Nc1c2c(cc3c1CCC3)CCC2)NS(=O)(=O)c1ccn(C2CC(O)C2)n1 (stereo not drawn) [Example 34, N-((1,2,3,5,6,7-Hexahydro-s-indacen-4-yl)carbamoyl)-1-(3-hydroxycyclobutyl)-1H-pyrazole-3-sulfonamide] | 5.80 to 6.10 | 6.19 to 6.80
COC1(c2cc(S(=O)(=O)NC(=O)Nc3c(-c4cccnc4)cc(F)c4c3CCC4)nn2C)COC1 [Example 35, N-((7-Fluoro-5-(pyridin-3-yl)-2,3-dihydro-1H-inden-4-yl)carbamoyl)-5-(3-methoxyoxetan-3-yl)-1-methyl-1H-pyrazole-3-sulfonamide] | 5.80 to 6.10 | 6.19 to 6.80
C[C@@H](O)Cn1cnc(S(=O)(=O)NC(=O)Nc2c3c(cc4c2CCC4)CCC3)n1 [Example 36, (R)—N-((1,2,3,5,6,7-Hexahydro-s-indacen-4-yl)carbamoyl)-1-(2-hydroxypropyl)-1H-1,2,4-triazole-3-sulfonamide] | 6.10 to 6.40 | 6.19 to 6.80
CC(C)c1cc(F)cc(-c2cccnc2)c1NC(=O)NS(=O)(=O)c1ccn(C[C@@H](C)O)n1 [Example 37, (R)—N-((4-Fluoro-2-isopropyl-6-(pyridin-3-yl)phenyl)carbamoyl)-1-(2-hydroxypropyl)-1H-pyrazole-3-sulfonamide] | > 6.40 | 6.19 to 6.80
